In patent US20100197584A1, “USE OF CURCUMIN TO BLOCK BRAIN TUMOR FORMATION IN MICE” (Research Foundations of the City University of- New York, priority 2007, published 2010):

How the values were obtained:
[1] = system: A549 (human lung cancer) cells; assay: Caspase-3/7 assay in A549 cells; assay type: cell-based; details: 20 μM and 50 μM, 48 h (FIG. 5)
Protocol: Cells. B16F10 (mouse melanoma), GL261 (mouse glioma), HOG (human oligodendroglioma), A549 (human lung cancer), and […] (mouse neuroblastoma) cells were cultured separately in DMEM containing 10% (v/v) fetal bovine serum and 1% (v/v) penicillin-streptomycin (PS) and allowed to grow to 40% confluence in a 96-well plate. Curcumin Treatment. Two hours before drug treatment, the medium in each well was replaced with 200 μl Neurobasal medium supplemented with 2% (v/v) B27 and 1% (v/v) PS (Drug-treatment Medium). A stock solution (40 mM) of curcumin was prepared in sterile dimethyl sulfoxide (DMSO) (Example 1). Through serial dilution of each stock solution in Drug-treatment Medium, the following concentrations were obtained: 20 μM and 50 μM (for caspase 3/7 assays) or 25 μM and 50 μM (for MTT assays). Drug-treatment Medium in each well was aspirated, and a drug solution of each concentration or carrier-containing medium (control) was added to triplicate wells of cells (50 μl/well). […] Additionally, the background absorbance was determined from parallel wells containing only the Drug-treatment Medium plus a particular concentration of the drug (no cells). […] Fluorescence in each well was measured using the FLx 800 plate reader (Bio-Tek Instruments, Winooski, Vt.) set at 485/20 nm excitation and 528/20 nm emission wavelengths and the sensitivity of 70. […]

[2] = system: ovarian cancer; details: orthotopic murine model of ovarian cancer (Lin et al. 2007); cited from earlier work
[3] = system: normal (non-tumor) brain cells; assay: Normal brain cell viability (MTT on brain sections); assay type: in vivo; details: 200 μl of 667 μM, tail vein, three consecutive days; compared to carrier-injected mice (FIG. 10)
Protocol: In each experiment, three mice were injected with 200 μl of PBS containing 3% DMSO, and three mice were injected with 200 μl of 667 μM curcumin (as described earlier) through the tail vein on three consecutive days by the method described above. On the fourth day, the mice were perfused with PBS through the heart, and the brains sectioned into 400-μm sections. Similar brain sections were also made from untreated mice which were then treated with 1 mM H2O2 in PBS for one hour, followed by incubation in H2O2-free DTM for three hours. These samples were used as a positive control for cell death.
The sections from each mouse were placed in 400 μl PBS in one well of a 48-well plate (i.e. three wells for three mice) and then treated with 200 μl of MTT (5 mg/ml) per well with gentle mixing at 37° C. for about 2 hours. Subsequently, 800 μl of the lysis buffer was added to each well, and the plate was sealed and incubated overnight at 37° C. with gentle mixing. Three 100-μl portions of the tissue solution obtained were next transferred to three respective wells of a 96-well plate (i.e. three wells per mouse and nine wells for three mice in one group) and absorbance at 570 nm was measured using a 96-well multi scanner auto-reader. Results obtained were normalized to protein levels and then expressed as percent of carrier-treated samples.

[4] = system: B16F10 mouse melanoma cells; assay: Tumor formation in peripheral tissue (B16F10 cells injected into the neck); assay type: in vivo, C57BL mice
Protocol: Generation of Tumors. C57BL mice were given food and water ad libitum and subjected to 12 hour dark/12 hour light cycles. To generate tumors in the peripheral tissue, B16F10 mouse melanoma cells (10^4 cells in 10 μl PBS) were injected into the necks of male and female C57BL mice. Curcumin Treatment. The control mice received, aseptically, the carrier (3% DMSO in 200 μl PBS) daily through the tail vein after placing the mouse in a restraining cage without anesthetics. Other mice similarly received […] in 200 μl of PBS containing 3% DMSO daily through the tail vein.

[5] = system: VEGF; assay: Western blot of B16F10 cells, VEGF; assay type: cell-based, mouse; details: 50 μM
Protocol: B16F10 cells were cultured in 10-cm plates and then treated in duplicate with carrier or curcumin (50 μM). Following treatment for appropriate time periods, the cells were washed with PBS, lysed in RIPA buffer (PBS containing 1% Nonidet P40, 0.5% sodium deoxycholate, 0.1% SDS, 0.5 mM Na3VO4 plus freshly added PMSF and protease inhibitor cocktail; Boeringer-Roche), and then 20 μg of lysate protein (per lane) were analyzed by SDS-10% PAGE and Western blot analysis. Antibody concentrations used were: anti-phospho-NF-κB (1:1000) (Santa Cruz Biotechnology, Santa Cruz, Calif.), anti-phospho-Akt (1:5000) (Cell Signaling, CA), anti-cyclin D1 (1:1000) (Cell Signaling, CA), anti-BclXL (1:500) (Santa Cruz Biotechnology), anti-VEGF (1:500) (Santa Cruz Biotechnology), and anti-β-actin (1:1000) (Sigma, St. Louis, Mo.).

COc1cc(/C=C/C(=O)CC(=O)/C=C/c2ccc(O)c(OC)c2)ccc1O [curcumin]
caspase-3/7 activity [1]: increased
tumor growth [2]: reduces tumor growth
cell viability in the brain (MTT activity) [3]: did not cause suppression of cell viability
condition of mice after treatment ([4]; even after the curcumin injection had been discontinued for 18 days, carrier mice died in about a month): remained normal indefinitely
outward sign of tumor or lesion ([4]; male and female C57BL mice, B16F10 cells in neck, 667 curcumin in 200 μl PBS 3% DMSO daily, tail vein): no outward sign of tumor or lesion
VEGF (Western blot) [5]: suppressed
